This passage reports Ki results from patent publication US10544150B2, “NK-3 receptor selective antagonist compounds, pharmaceutical composition and methods for use in NK-3 receptors mediated disorders” (Ogeda SA, priority 2010, dated 2020).

For this experiment, the target named is human NK-3 receptor (Homo sapiens (Human), UniProt P29371). The experiment can be described thus: 3H-SB222200 binding competition assay with human NK-3 receptor. The note with it: 3H-SB222200 displacement, CHO cell membranes expressing human NK3 receptor; read-out: Ki range. The method, boiled down: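 Radioligand displacement: 5 nM tritiated SB222200 competed by varying compound concentrations on recombinant CHO membranes bearing human NK3, buffer pH 7.4 with HEPES, NaCl, CaCl2, MgCl2, BSA and saponin. Filter-bound radioactivity quantified; calculated Ki given as ranges from +++ (<500 nM) to # (>5 μM).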
human NK-3 receptor, sequence (P29371 whole entry): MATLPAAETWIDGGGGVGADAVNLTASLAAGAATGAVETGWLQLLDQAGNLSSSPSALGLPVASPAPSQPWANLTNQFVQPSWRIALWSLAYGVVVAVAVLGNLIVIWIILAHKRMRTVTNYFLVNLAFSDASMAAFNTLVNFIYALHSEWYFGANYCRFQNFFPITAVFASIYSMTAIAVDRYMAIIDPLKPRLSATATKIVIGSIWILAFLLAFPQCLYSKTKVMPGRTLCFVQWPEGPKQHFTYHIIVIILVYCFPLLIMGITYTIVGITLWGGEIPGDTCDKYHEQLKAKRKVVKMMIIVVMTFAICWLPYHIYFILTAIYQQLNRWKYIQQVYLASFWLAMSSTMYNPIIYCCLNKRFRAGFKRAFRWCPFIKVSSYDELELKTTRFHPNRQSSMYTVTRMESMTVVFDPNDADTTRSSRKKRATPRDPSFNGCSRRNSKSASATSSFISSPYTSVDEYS
The term Ki denotes a measure of affinity in units of concentration, obtained from inhibition or displacement. As for `Cn1nc(-c2ccccc2)cc1-c1nnc2n1CCN(C(=O)c1ccc(F)cc1)C2` [Compound 225, (4-fluorophenyl)(3-(1-methyl-3-phenyl-1H-pyrazol-5-yl)-5,6-dihydro-[1,2,4]triazolo[4,3-a]pyrazin-7(8H)-yl)methanone], the Ki is 1000 to 5000 nM.
Under `O=C(c1ccc(-c2cccs2)cc1)N1CCn2c(nnc2-c2csc(-c3ncccn3)n2)C1` [Compound 226, (3-(2-(pyrimidin-2-yl)thiazol-4-yl)-5,6-dihydro-[1,2,4]triazolo[4,3-a]pyrazin-7(8H)-yl)(4-(thiophen-2-yl)phenyl)methanone] stands > 5000 nM; under `C[C@H]1c2nnc(-c3csc(N4CCOCC4)n3)n2CCN1C(=O)c1ccc(-c2cccs2)cc1` [Compound 227, (S)-(8-methyl-3-(2-morpholinothiazol-4-yl)-5,6-dihydro-[1,2,4]triazolo[4,3-a]pyrazin-7(8H)-yl)(4-(thiophen-2-yl)phenyl)methanone], 500 to 1000 nM; under `O=C(c1ccc(-c2cccs2)cc1)N1CCn2c(nnc2-c2csc(-c3ccncc3)n2)C1` [Compound 228, (3-(2-(pyridin-4-yl)thiazol-4-yl)-5,6-dihydro-[1,2,4]triazolo[4,3-a]pyrazin-7(8H)-yl)(4-(thiophen-2-yl)phenyl)methanone], < 500 nM.
Then `CN(C)c1ccc(-c2nc(-c3nnc4n3CCN(C(=O)c3ccc(-c5cccs5)cc3)C4)cs2)cc1` [Compound 229, (3-(2-(4-(dimethylamino)phenyl)thiazol-4-yl)-5,6-dihydro-[1,2,4]triazolo[4,3-a]pyrazin-7(8H)-yl)(4-(thiophen-2-yl)phenyl)methanone], with < 500 nM.
Consider `O=C(c1ccc(F)cc1)N1CCn2c(nnc2-c2csc(-c3ccccn3)n2)C1` [Compound 230, (4-fluorophenyl)(3-(2-(pyridin-2-yl)thiazol-4-yl)-5,6-dihydro-[1,2,4]triazolo[4,3-a]pyrazin-7(8H)-yl)methanone], for which the Ki is 1000 to 5000 nM.
Then `O=C(c1ccccc1)N1CCn2c(nnc2-c2ccccn2)C1` [Compound 231, phenyl(3-(pyridin-2-yl)-5,6-dihydro-[1,2,4]triazolo[4,3-a]pyrazin-7(8H)-yl)methanone], with 1000 to 5000 nM.
With `Cc1ccc(C(=O)N2CCn3c(nnc3-c3ccccn3)C2)cc1` [Compound 232, (3-(pyridin-2-yl)-5,6-dihydro-[1,2,4]triazolo[4,3-a]pyrazin-7(8H)-yl)(p-tolyl)methanone], the Ki fell in the range of 1000 to 5000 nM.
On to `Cc1sccc1-c1ccc(C(=O)N2CCn3c(-c4csc(-c5ccc(F)cc5)n4)nnc3[C@@H]2C)cc1` [Compound 233, (S)-(3-(2-(4-fluorophenyl)thiazol-4-yl)-8-methyl-5,6-dihydro-[1,2,4]triazolo[4,3-a]pyrazin-7(8H)-yl)(4-(2-methylthiophen-3-yl)phenyl)methanone], for which the Ki was < 500 nM.
With `Cc1sccc1-c1ccc(C(=O)N2CCn3c(-c4csc(-c5ccc(F)cc5)n4)nnc3[C@H]2C)cc1` [Compound 234, (R)-(3-(2-(4-fluorophenyl)thiazol-4-yl)-8-methyl-5,6-dihydro-[1,2,4]triazolo[4,3-a]pyrazin-7(8H)-yl)(4-(2-methylthiophen-3-yl)phenyl)methanone], the Ki is < 500 nM.
Then `O=C(c1ccc(-c2cccs2)cc1)N1CCn2c(nnc2-c2csc(-c3cnccn3)n2)C1` [Compound 235, (3-(2-(pyrazin-2-yl)thiazol-4-yl)-5,6-dihydro-[1,2,4]triazolo[4,3-a]pyrazin-7(8H)-yl)(4-(thiophen-2-yl)phenyl)methanone], with < 500 nM.
Under `N#Cc1ccc(-c2nc(-c3nnc4n3CCN(C(=O)c3ccc(-c5cccs5)cc3)C4)cs2)cc1` [Compound 236, 4-(4-(7-(4-(thiophen-2-yl)benzoyl)-5,6,7,8-tetrahydro-[1,2,4]triazolo[4,3-a]pyrazin-3-yl)thiazol-2-yl)benzonitrile] stands < 500 nM; under `Cn1nc(-c2nnc3n2CCN(C(=O)c2ccc(F)cc2)C3)cc1-c1ccccc1` [Compound 238, (4-fluorophenyl)(3-(1-methyl-5-phenyl-1H-pyrazol-3-yl)-5,6-dihydro-[1,2,4]triazolo[4,3-a]pyrazin-7(8H)-yl)methanone], < 500 nM; under `O=C(c1ccc(-c2cccs2)cc1)N1CCn2c(nnc2-c2csc(-c3ccc(N4CCOCC4)cc3)n2)C1` [Compound 239, (3-(2-(4-morpholinophenyl)thiazol-4-yl)-5,6-dihydro-[1,2,4]triazolo[4,3-a]pyrazin-7(8H)-yl)(4-(thiophen-2-yl)phenyl)methanone], 1000 to 5000 nM.
Then `O=C(c1ccc(F)cc1)N1CCn2c(nnc2-c2csc(-c3ccc(N4CCOCC4)cc3)n2)C1` [Compound 240, (4-fluorophenyl)(3-(2-(4-morpholinophenyl)thiazol-4-yl)-5,6-dihydro-[1,2,4]triazolo[4,3-a]pyrazin-7(8H)-yl)methanone], with 500 to 1000 nM; and `CN1CCN(c2ccc(-c3nc(-c4nnc5n4CCN(C(=O)c4ccc(-c6cccs6)cc4)C5)cs3)cc2)CC1` [Compound 241, (3-(2-(4-(4-methylpiperazin-1-yl)phenyl)thiazol-4-yl)-5,6-dihydro-[1,2,4]triazolo[4,3-a]pyrazin-7(8H)-yl)(4-(thiophen-2-yl)phenyl)methanone], with < 500 nM.
Consider `CN1CCN(c2ccc(-c3nc(-c4nnc5n4CCN(C(=O)c4ccc(F)cc4)C5)cs3)cc2)CC1` [Compound 242, (4-fluorophenyl)(3-(2-(4-(4-methylpiperazin-1-yl)phenyl)thiazol-4-yl)-5,6-dihydro-[1,2,4]triazolo[4,3-a]pyrazin-7(8H)-yl)methanone], for which the Ki lay within 500 to 1000 nM.
`O=C(c1ccc(F)cc1)N1CCn2c(nnc2-c2csc(-c3ccc(N4CCCCC4)cc3)n2)C1` [Compound 244, (4-fluorophenyl)(3-(2-(4-(piperidin-1-yl)phenyl)thiazol-4-yl)-5,6-dihydro-[1,2,4]triazolo[4,3-a]pyrazin-7(8H)-yl)methanone]: the Ki was in the range of 500 to 1000 nM.
Then `O=C(c1ccc(-c2cccs2)cc1)N1CCn2c(nnc2-c2csc(-c3ccc(N4CCCC4)cc3)n2)C1` [Compound 245, (3-(2-(4-(pyrrolidin-1-yl)phenyl)thiazol-4-yl)-5,6-dihydro-[1,2,4]triazolo[4,3-a]pyrazin-7(8H)-yl)(4-(thiophen-2-yl)phenyl)methanone], with < 500 nM; and `O=C(c1ccc(F)cc1)N1CCn2c(nnc2-c2csc(-c3ccc(N4CCCC4)cc3)n2)C1` [Compound 246, (4-fluorophenyl)(3-(2-(4-(pyrrolidin-1-yl)phenyl)thiazol-4-yl)-5,6-dihydro-[1,2,4]triazolo[4,3-a]pyrazin-7(8H)-yl)methanone], with < 500 nM; and `O=C(c1ccc(-c2cccs2)cc1)N1CCn2c(nnc2-c2csc(N3CCCCC3)n2)C1` [Compound 247, (3-(2-(piperidin-1-yl)thiazol-4-yl)-5,6-dihydro-[1,2,4]triazolo[4,3-a]pyrazin-7(8H)-yl)(4-(thiophen-2-yl)phenyl)methanone], with < 500 nM.
Then `O=C(c1ccc(-c2cccs2)cc1)N1CCn2c(nnc2-c2csc(N3CCCC3)n2)C1` [Compound 248, (3-(2-(pyrrolidin-1-yl)thiazol-4-yl)-5,6-dihydro-[1,2,4]triazolo[4,3-a]pyrazin-7(8H)-yl)(4-(thiophen-2-yl)phenyl)methanone], with < 500 nM.
Then `O=C(c1ccc(F)cc1)N1CCn2c(nnc2-c2csc(N3CCCC3)n2)C1` [Compound 249, (4-fluorophenyl)(3-(2-(pyrrolidin-1-yl)thiazol-4-yl)-5,6-dihydro-[1,2,4]triazolo[4,3-a]pyrazin-7(8H)-yl)methanone], with < 500 nM.
Turning to `CN1CCN(c2nc(-c3nnc4n3CCN(C(=O)c3ccc(-c5cccs5)cc3)C4)cs2)CC1` [Compound 250, (3-(2-(4-methylpiperazin-1-yl)thiazol-4-yl)-5,6-dihydro-[1,2,4]triazolo[4,3-a]pyrazin-7(8H)-yl)(4-(thiophen-2-yl)phenyl)methanone], the Ki lay within 500 to 1000 nM.
Consider `Cn1cc(-c2nnc3n2CCN(C(=O)c2ccc(-c4cccs4)cc2)C3)nc1-c1ccccc1` [Compound 252, (3-(1-methyl-2-phenyl-1H-imidazol-4-yl)-5,6-dihydro-[1,2,4]triazolo[4,3-a]pyrazin-7(8H)-yl)(4-(thiophen-2-yl)phenyl)methanone], for which the inhibitory constant (Ki) is 500 to 1000 nM.
For `CN(C)c1ccc(C(=O)N2CCn3c(nnc3-c3csc(-c4ccc(F)cc4)n3)C2)cc1` [Compound 253, (4-(dimethylamino)phenyl)(3-(2-(4-fluorophenyl)thiazol-4-yl)-5,6-dihydro-[1,2,4]triazolo[4,3-a]pyrazin-7(8H)-yl)methanone], the Ki fell in the range of 500 to 1000 nM.
`COCCn1nc(-c2ccccc2)cc1-c1nnc2n1CCN(C(=O)c1ccc(-c3cccs3)cc1)C2` [Compound 254, (3-(1-(2-methoxyethyl)-3-phenyl-1H-pyrazol-5-yl)-5,6-dihydro-[1,2,4]triazolo[4,3-a]pyrazin-7(8H)-yl)(4-(thiophen-2-yl)phenyl)methanone]: the Ki was < 500 nM.
On to `COCCn1nc(-c2ccccc2)cc1-c1nnc2n1CCN(C(=O)c1ccc(F)cc1)C2` [Compound 255, (4-fluorophenyl)(3-(1-(2-methoxyethyl)-3-phenyl-1H-pyrazol-5-yl)-5,6-dihydro-[1,2,4]triazolo[4,3-a]pyrazin-7(8H)-yl)methanone], for which the inhibition constant Ki lay within 500 to 1000 nM.
Regarding `CC(C)Cc1nc(-c2nnc3n2CCN(C(=O)c2ccc(-c4cccs4)cc2)C3)cs1` [Compound 256, (3-(2-isobutylthiazol-4-yl)-5,6-dihydro-[1,2,4]triazolo[4,3-a]pyrazin-7(8H)-yl)(4-(thiophen-2-yl)phenyl)methanone], the Ki is < 500 nM.
Under `COCCC1CN(c2nc(-c3nnc4n3CCN(C(=O)c3ccc(-c5cccs5)cc3)C4)cs2)CCO1` (stereo not drawn) [Compound 257, (3-(2-(2-(2-methoxyethyl)morpholino)thiazol-4-yl)-5,6-dihydro-[1,2,4]triazolo[4,3-a]pyrazin-7(8H)-yl)(4-(thiophen-2-yl)phenyl)methanone] stands < 500 nM.
